Broadly, the IC50 is the concentration needed to halve the response being measured. A lower IC50 goes with higher potency.

The results in this text go back to US11332476B2, “Fms-like tyrosine kinase inhibitors” (3SM BIOTRON INC., priority 2018, dated 2022).

This test deals with T1, FLT3 (Homo sapiens, UniProt P36888).
T1 sequence (P36888 27-993): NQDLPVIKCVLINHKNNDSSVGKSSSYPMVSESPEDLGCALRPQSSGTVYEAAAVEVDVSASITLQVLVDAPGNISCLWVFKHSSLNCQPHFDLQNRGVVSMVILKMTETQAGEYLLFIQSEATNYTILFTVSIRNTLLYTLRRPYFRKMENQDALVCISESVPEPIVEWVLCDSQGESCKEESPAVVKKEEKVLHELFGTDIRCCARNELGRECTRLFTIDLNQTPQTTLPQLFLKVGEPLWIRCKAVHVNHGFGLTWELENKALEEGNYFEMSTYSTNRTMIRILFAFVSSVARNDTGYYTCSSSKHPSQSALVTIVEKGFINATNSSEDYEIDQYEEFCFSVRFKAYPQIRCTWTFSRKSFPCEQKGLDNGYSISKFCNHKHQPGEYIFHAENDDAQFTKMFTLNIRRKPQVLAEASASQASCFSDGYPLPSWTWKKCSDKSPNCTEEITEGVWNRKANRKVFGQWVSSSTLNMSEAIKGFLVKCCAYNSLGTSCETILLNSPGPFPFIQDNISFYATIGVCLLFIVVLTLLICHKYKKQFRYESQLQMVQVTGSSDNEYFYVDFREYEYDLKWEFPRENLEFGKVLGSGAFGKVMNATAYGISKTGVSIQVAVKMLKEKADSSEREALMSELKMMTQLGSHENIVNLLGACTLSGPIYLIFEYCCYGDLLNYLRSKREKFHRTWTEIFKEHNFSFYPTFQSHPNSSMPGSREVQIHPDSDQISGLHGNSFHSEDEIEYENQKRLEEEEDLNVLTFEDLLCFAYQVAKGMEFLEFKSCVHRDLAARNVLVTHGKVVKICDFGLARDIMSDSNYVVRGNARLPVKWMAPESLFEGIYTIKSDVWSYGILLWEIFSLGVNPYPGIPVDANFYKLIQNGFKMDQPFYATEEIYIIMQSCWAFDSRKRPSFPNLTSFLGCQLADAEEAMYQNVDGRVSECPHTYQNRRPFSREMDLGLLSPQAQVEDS
In words: Inhibition of FLT3, 33P-ATP kinase assay with filter-binding detection. The settings on record: 33P-ATP 10 uM, 2 hours at room temperature, filter-binding method. In kind it is biochemical. On the procedure: Prepare indicated substrate in freshly prepared Base Reaction Buffer (20 mM Hepes (pH 7.5), 10 mM MgCl2, 1 mM EGTA, 0.02% Brij35, 0.02 mg/ml BSA, 0.1 mM Na3VO4, 2 mM DTT, 1% DMSO). Deliver any required cofactors to the substrate solution above. Deliver indicated kinase into the substrate solution and gently mix. The testing compounds in DMSO was added into the kinase reaction mixture by Acoustic technology (Echo550; nanoliter range) and incubated for 20 minutes at room temperature. Deliver 33P-ATP (specific activity […]) into the reaction mixture to initiate the reaction. Incubate kinase reaction for 2 hours at room temperature. Reactions are spotted onto P81 ion exchange paper. Detect kinase activity by filter-binding method.
Inhibition of FLT3 with 4-Quinolone Derivatives

Structures are written as SMILES.

In turn, `NCCCNc1nc2ccc(F)cc2c2c(=O)c3cc(F)ccc3sc12` [compound 7402, 6-(3-aminopropylamino)-2,10-difluoro-12H-thiochromeno[2,3-c]quinolin-12-one] registered a 50% inhibitory concentration (IC50) of more than 1000 nM.

In the case of `O=c1c2cccc(F)c2sc2c(NCCCNCCO)nc3ccccc3c12` [compound 7224, 8-fluoro-6-(3-(2-hydroxyethylamino)propylamino)-12H-thiochromeno[2,3-c]quinolin-12-one], the IC50 lay in the range of 201 to 500 nM.

As to `Cc1ccc2sc3c(NCCCNCCO)nc4ccccc4c3c(=O)c2c1` [compound 7215, 6-(3-(2-hydroxyethylamino)propylamino)-10-methyl-12H-thiochromeno[2,3-c]quinolin-12-one], the IC50 was in the range of 201 to 500 nM.

For the compound `CCCNc1nc2ccccc2c2c(=O)c3cc(Cl)ccc3sc12` [compound 7703, 10-chloro-6-(propylamino)-12H-thiochromeno[2,3-c]quinolin-12-one], the IC50 was more than 1000 nM.

On to `O=c1c2cc(F)ccc2sc2c(OCCO)nc3ccccc3c12` [compound 7728, 10-fluoro-6-(2-hydroxyethoxy)-12H-thiochromeno[2,3-c]quinolin-12-one], for which the 50% inhibitory concentration (IC50) is more than 1000 nM.

`COCCNc1nc2ccccc2c2c(=O)c3cc(F)ccc3sc12` [compound 7745, 10-fluoro-6-(2-methoxyethylamino)-12H-thiochromeno[2,3-c]quinolin-12-one] registered a 50% inhibitory concentration (IC50) of more than 1000 nM.

With `O=c1c2cc(F)ccc2sc2c(N3CCNCC3)nc3ccc(F)cc3c12` [compound 7425, 2,10-difluoro-6-(piperazin-1-yl)-12H-thiochromeno[2,3-c]quinolin-12-one], the concentration for half-maximal inhibition (IC50) is more than 1000 nM.

In turn, `O=c1c2cc(F)ccc2sc2c(N3CCCC3)nc3ccccc3c12` [compound 7747, 10-fluoro-6-(pyrrolidin-1-yl)-12H-thiochromeno[2,3-c]quinolin-12-one] displayed an IC50 of more than 1000 nM.

The compound `CCCNc1nc2ccccc2c2c(=O)c3ccc(Cl)cc3sc12` [compound 7725, 9-chloro-6-(propylamino)-12H-thiochromeno[2,3-c]quinolin-12-one] had an IC50 of more than 1000 nM.

Take `NCCCNc1nc2ccccc2c2c(=O)c3cc(OC(F)(F)F)ccc3sc12` [compound 7203, 6-(3-aminopropylamino)-10-(trifluoromethoxy)-12H-thiochromeno[2,3-c]quinolin-12-one]: the IC50 was more than 1000 nM.

`COc1ccc2sc3c(N)nc4ccccc4c3c(=O)c2c1` [compound 7709, 6-Amino-10-methoxy-12H-thiochromeno[2,3-c]quinolin-12-one] displayed an IC50 of more than 1000 nM.

In turn, `NCCCNc1nc2ccccc2c2c(=O)c3cc(C(F)(F)F)ccc3sc12` [compound 7201, 6-(3-aminopropylamino)-10-trifluoromethyl-12H-thiochromeno[2,3-c]quinolin-12-one] registered an IC50 of more than 1000 nM.

`O=c1c2cc(F)ccc2sc2c(-n3cccc3)nc3ccccc3c12` [compound 7750, 10-fluoro-6-(1H-pyrrol-1-yl)-12H-thiochromeno[2,3-c]quinolin-12-one] yielded an IC50 of more than 1000 nM.

Compound `O=c1c2cc(F)cc(F)c2sc2c(NCCCNCCO)nc3ccccc3c12` [compound 7253, 8,10-difluoro-6-(3-(2-hydroxyethylamino)propylamino)-12H-thiochromeno[2,3-c]quinolin-12-one] displayed an IC50 of more than 1000 nM.

`NCCCNc1nc2ccccc2c2c(=O)c3cccc(F)c3sc12` [compound 7211, 6-(3-aminopropylamino)-8-fluoro-12H-thiochromeno[2,3-c]quinolin-12-one] displayed an IC50 of less than 51 nM.

As for `CCN1CCN(c2nc3ccccc3c3c(=O)c4cc(F)ccc4sc23)CC1` [compound 7757, 6-(4-ethylpiperazin-1-yl)-10-fluoro-12H-thiochromeno[2,3-c]quinolin-12-one], the half-maximal inhibitory concentration (IC50) is 201 to 500 nM.

`O=c1c2cc(F)ccc2sc2c(NCc3ccccc3)nc3ccc(F)cc3c12` [compound 7424, 6-(benzylamino)-2,10-difluoro-12H-thiochromeno[2,3-c]quinolin-12-one] registered an IC50 of more than 1000 nM.

`CCCNc1nc2ccccc2c2c(=O)c3cc(F)ccc3sc12` [compound 7706, 10-fluoro-6-(propylamino)-12H-thiochromeno[2,3-c]quinolin-12-one] had an IC50 of more than 1000 nM.

In turn, `Nc1nc2ccccc2c2c(=O)c3cc(F)ccc3sc12` [compound 7705, 6-amino-10-fluoro-12H-thiochromeno[2,3-c]quinolin-12-one] came in with an IC50 of more than 1000 nM.

As for `COc1ccc2sc3c(NCCCN)nc4ccccc4c3c(=O)c2c1` [compound 7711, 6-(3-aminopropylamino)-10-methoxy-12H-thiochromeno[2,3-c]quinolin-12-one], the IC50 fell in the range of 51 to 200 nM.

`CN(C)CCCNc1nc2ccccc2c2c(=O)c3cc(F)ccc3sc12` [compound 7732, 6-(3-(dimethylamino)propylamino)-10-fluoro-12H-thiochromeno[2,3-c]quinolin-12-one] had a half-inhibitory concentration (IC50) of more than 1000 nM.

With `O=c1c2cc(Cl)ccc2sc2c(NCCCO)nc3ccccc3c12` [compound 7719, 10-chloro-6-(3-hydroxypropylamino)-12H-thiochromeno[2,3-c]quinolin-12-one], the IC50 was more than 1000 nM.

In turn, `Cc1ccc2sc3c(NCCN)nc4ccccc4c3c(=O)c2c1` [compound 7231, 6-(2-aminoethylamino)-10-methyl-12H-thiochromeno[2,3-c]quinolin-12-one] had an IC50 of less than 51 nM.

For `O=c1c2cc(F)ccc2sc2c(NCCCNCCO)nc3ccccc3c12` [compound 7708, 10-fluoro-6-(3-(2-hydroxyethylamino)propylamino)-12H-thiochromeno[2,3-c]quinolin-12-one], the IC50 was 201 to 500 nM.

`NCCCNc1nc2ccccc2c2c(=O)c3cc(Cl)ccc3sc12` [compound 7704, 6-(3-aminopropylamino)-10-chloro-12H-thiochromeno[2,3-c]quinolin-12-one] displayed an IC50 of 501 to 1000 nM.

For `CN(C)CCNc1nc2ccccc2c2c(=O)c3cc(F)ccc3sc12` [compound 7744, 6-(2-(dimethylamino)ethylamino)-10-fluoro-12H-thiochromeno[2,3-c]quinolin-12-one], the IC50 is 201 to 500 nM.

The compound `CNCCNc1nc2ccccc2c2c(=O)c3cc(F)ccc3sc12` [compound 7752, 10-fluoro-6-(2-(methylamino)ethylamino)-12H-thiochromeno[2,3-c]quinolin-12-one] had an IC50 of less than 51 nM.

`CNCCCNc1nc2ccccc2c2c(=O)c3cc(Cl)ccc3sc12` [compound 7721, 10-chloro-6-(3-(methylamino)propylamino)-12H-thiochromeno[2,3-c]quinolin-12-one] had an IC50 of 501 to 1000 nM.

In turn, `NCCCNc1nc2ccccc2c2c(=O)c3cc(F)cc(F)c3sc12` [compound 7252, 6-(3-aminopropylamino)-8,10-difluoro-12H-thiochromeno[2,3-c]quinolin-12-one] displayed an IC50 of 201 to 500 nM.

In the case of `CCNc1nc2ccccc2c2c(=O)c3cccc(F)c3sc12` [compound 7241, 6-(ethylamino)-8-fluoro-12H-thiochromeno[2,3-c]quinolin-12-one], the IC50 is more than 1000 nM.

In the case of `NCCCNc1nc2ccccc2c2c(=O)c3cc(F)cc(Cl)c3sc12` [compound 7213, 6-(3-aminopropylamino)-8-chloro-10-fluoro-12H-thiochromeno[2,3-c]quinolin-12-one], the IC50 was more than 1000 nM.
